Test results from patent publication US20090099169A1, “Benzofuran Compounds As EP1 Receptor Antagonists” (GLAXO GROUP LIMITED, priority 2006, published 2009).
Structures can show the parent of a compound that is named as a salt.

How the values were obtained:
human EP3 receptor = target: T1, human EP3 receptor (Homo sapiens, UniProt P43115); experiment: human EP3 calcium mobilisation assay; assay type: cell-based; details: CHO-K1 cells, antagonism of PGE2; averages of a number of experiments; read-out: functional pKi value (human EP3 calcium mobilisation assay) (converted)
T1 construct: expressed in transfected cells; host or cells: CHO-K1
T1 sequence (P43115 1-390): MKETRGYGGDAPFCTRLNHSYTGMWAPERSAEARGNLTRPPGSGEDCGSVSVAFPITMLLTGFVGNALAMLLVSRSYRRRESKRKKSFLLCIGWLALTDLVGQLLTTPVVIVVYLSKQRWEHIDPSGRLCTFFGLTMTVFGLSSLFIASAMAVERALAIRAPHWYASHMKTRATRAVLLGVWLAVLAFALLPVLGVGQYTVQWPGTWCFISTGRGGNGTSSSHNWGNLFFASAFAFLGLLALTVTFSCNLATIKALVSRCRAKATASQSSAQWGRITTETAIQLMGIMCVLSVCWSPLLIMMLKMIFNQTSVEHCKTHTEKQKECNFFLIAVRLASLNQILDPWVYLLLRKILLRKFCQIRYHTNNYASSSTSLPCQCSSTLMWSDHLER
Experimental: (§1) Briefly, the antagonist properties of compounds are assessed by their ability to inhibit the mobilisation of intracellular calcium ([Ca^2+]i) in response to activation of EP1 or EP3 receptors by the natural agonist hormone prostaglandin E2 (PGE2). Increasing concentrations of antagonist reduce the amount of calcium that a given concentration of PGE2 can mobilise. The net effect is to displace the PGE2 concentration-effect curve to higher concentrations of PGE2. The amount of calcium produced is assessed using a calcium-sensitive fluorescent dye such as Fluo-4, AM and a suitable instrument such as a Fluorimetric Imaging Plate Reader (FLIPR). Increasing amounts of [Ca^2+]i produced by receptor activation increase the amount of fluorescence produced by the dye and give rise to an increasing signal. The signal may be detected using the FLIPR instrument and the data generated may be analysed with suitable curve-fitting software.
(§2) The human EP1 or EP3 calcium mobilisation assay (hereafter referred to as ‘the calcium assay’) utilises Chinese hamster ovary-K1 (CHO-K1) cells into which a stable (PCIN; BioTechniques 20 (1996): 102-110) vector containing either EP1 or EP3 cDNA has previously been transfected. Cells are cultured in suitable flasks containing culture medium such as DMEM:F-12 supplemented with 10% v/v foetal calf serum, 2 mM L-glutamine, 0.25 mg/ml geneticin, 100 μM flurbiprofen and 10 μg/ml puromycin.
(§3) For assay, cells are harvested using a proprietary reagent that dislodges cells such as Versene. Cells are re-suspended in a suitable quantity of fresh culture media for introduction into a 384-well plate. Following incubation for 24 hours at 37° C. the culture media is replaced with a medium containing Fluo-4 and the detergent pluronic acid, and a further incubation takes place. Concentrations of compounds are then added to the plate in order to construct concentration-effect curves. This may be performed on the FLIPR in order to assess the agonist properties of the compounds. Concentrations of PGE2 are then added to the plate in order to assess the antagonist properties of the compounds.
(§4) The data so generated may be analysed by means of a computerised curve-fitting routine. The concentration of compound that elicits a half-maximal inhibition of the calcium mobilisation induced by PGE2 (pIC50) may then be estimated.

human EP1 receptor [1] = target: T2, human EP1 receptor (Homo sapiens, UniProt P34995); experiment: human EP1 calcium mobilisation assay; assay type: cell-based; parameters: expressed in transfected cells; details: CHO-K1 cells, antagonism of PGE2; averages of a number of experiments; read-out: functional pKi value (human EP1 calcium mobilisation assay) (converted)
T2 sequence (P34995 1-402): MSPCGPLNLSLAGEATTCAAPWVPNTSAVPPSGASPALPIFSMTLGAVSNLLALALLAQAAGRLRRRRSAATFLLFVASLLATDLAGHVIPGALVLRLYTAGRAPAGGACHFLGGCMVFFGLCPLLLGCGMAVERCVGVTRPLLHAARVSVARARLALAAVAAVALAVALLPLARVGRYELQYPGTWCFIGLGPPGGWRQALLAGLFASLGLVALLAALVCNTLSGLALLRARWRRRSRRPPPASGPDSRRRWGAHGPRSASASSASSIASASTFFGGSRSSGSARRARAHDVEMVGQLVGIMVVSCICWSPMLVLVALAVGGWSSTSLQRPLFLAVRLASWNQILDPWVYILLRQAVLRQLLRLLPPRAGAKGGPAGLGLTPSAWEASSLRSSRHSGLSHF
Experimental: as §1, §2, §3, §4

human EP1 receptor [2] = target: T2, human EP1 receptor; experiment: Binding assay for the human prostanoid EP1 receptor (radioligand competition); parameters: expressed in transfected cells; host or cells: CHO-K1 (membranes); details: CHO-K1 membranes; [3H]-PGE2 for Examples 1-17, 19, 33, 34, 60 and 61, 3-{2-[5-Bromo-2-(2,4-difluorobenzyloxy)-phenyl]-5-methyl-pyrrol-1-yl}-6-[3H3-methoxy]methoxy-benzoic acid for the remaining; averages of a number of experiments; read-out: pIC50 value (binding assay for the human prostanoid EP1 receptor) (converted)
Experimental: Compound potencies are determined using a radioligand binding assay. In this assay compound potencies are determined from their ability to compete with tritiated prostaglandin E2 ([^3H]-PGE2) for binding to the human EP1 receptor.
This assay utilises Chinese hamster ovary-K1 (CHO-K1) cells into which a stable vector containing the EP1 cDNA has previously been transfected. Cells are cultured in suitable flasks containing culture medium such as DMEM:F-12 supplemented with 10% v/v foetal calf serum, 2 mM L-glutamine, 0.25 mg/ml geneticin, 10 μg/ml puromycin and 10 μM indomethacin.
Cells are detached from the culture flasks by incubation in calcium and magnesium free phosphate buffered saline containing 1 mM disodium ethylenediaminetetraacetic acid (Na2EDTA) and […] indomethacin for 5 min. The cells are isolated by centrifugation at 250×g for 5mins and suspended in an ice cold buffer such as 50 mM Tris, 1 mM Na2EDTA, 140 mM NaCl, 10 μM indomethacin (pH 7.4). The cells are homogenised using a Polytron tissue disrupter (2×10 s burst at full setting), centrifuged at 48,000×g for 20mins and the pellet containing the membrane fraction is washed (optional) three times by suspension and centrifugation at 48,000×g for 20mins. The final membrane pellet is suspended in an assay buffer such as 10 mM 2-[N-morpholino]ethanesulphonic acid, 1 mM Na2EDTA, 10 mM MgCl2 (pH 6). Aliquots are frozen at −80° C. until required.
(§5) For the binding assay the cell membranes, competing compounds and [^3H]-PGE2 (3 nM final assay concentration) are incubated in a final volume of 100 μl for 30 min at 30° C. All reagents are prepared in assay buffer. Reactions are terminated by rapid vacuum filtration over GF/B filters using a Brandell cell harvester. The filters are washed with ice cold assay buffer, dried and the radioactivity retained on the filters is measured by liquid scintillation counting in Packard TopCount scintillation counter.
The data are analysed using non linear curve fitting techniques to determine the concentration of compound producing 50% inhibition of specific binding (IC50).
Alternatively a similar assay may be carried out using 3-{2-[5-Bromo-2-(2,4-difluoro-benzyloxy)-phenyl]-5-methyl-pyrrol-1-yl}-6-[^3H3-methoxy]methoxy-benzoic acid instead of [^3H]-PGE2.
For the binding assay using 3-{2-[5-Bromo-2-(2,4-difluoro-benzyloxy)-phenyl]-5-methyl-pyrrol-1-yl}-6-[^3H3-methoxy]methoxy-benzoic acid instead of [^3H]-PGE2 the assay is carried out using a similar procedure to that described above using [^3H]-PGE2 with the following changes:
as §5, with “The” for “For the binding assay the”, “3-{2-[5-Bromo-2-(2,4-difluoro-benzyloxy)-phenyl]-5-methyl-pyrrol-1-yl}-6-[^3H3-methoxy]methoxy-benzoic acid (0.2” for “[^3H]-PGE2 (3”, “400” for “100”, “45” for “30”, “37°” for “30°”, “water at ambient temperature,” for “ice cold assay buffer,”
The preparation of 3-{2-[5-Bromo-2-(2,4-difluoro-benzyloxy)-phenyl]-5-methyl-pyrrol-1-yl}-6-methoxy-benzoic acid is described in WO 03/101959 and in Hall et al, Biorg. Med. Chem. Lett., 2007, 17, 916-920. The tritiated version may be prepared via conventional routes, e.g. from 3-{2-[5-bromo-2-(2,4-difluoro-benzyloxy)-phenyl]-5-methyl-pyrrol-1-yl}-6-hydroxy-benzoic acid or 3-{2-[5-bromo-2-(2,4-difluoro-benzyloxy)-phenyl]-5-methyl-pyrrol-1-yl}-6-hydroxy-benzoic acid methyl ester.

SMILES | Ki (human EP3 receptor) | Ki (human EP1 receptor [1]) | IC50 (human EP1 receptor [2])
Cc1cc(C(=O)O)nn1Cc1cc(S(C)(=O)=O)cc2cc(C(C)C)oc12 [Example 22, 5-methyl-1-{[2-(1-methylethyl)-5-(methylsulfonyl)-1-benzofuran-7-yl]methyl}-1H-pyrazole-3-carboxylic Acid] | 501 to 10000 nM | ≤ 316 nM | ≤ 100 nM
CC(C)c1cc2cc(Cl)cc(Cc3cccc(C(=O)NN4CCOCC4)n3)c2o1 [Example 44, 6-{[5-Chloro-2-(1-methylethyl)-1-benzofuran-7-yl]methyl}-N-4-morpholinyl-2-pyridinecarboxammide] | 501 to 10000 nM | ≤ 316 nM | ≤ 100 nM
Cc1cc(C(=O)Nc2ccc(CN3CCCC3)cc2)nn1Cc1cc(Br)cc2cc(C(C)C)oc12 [Example 51, 1-{[5-Bromo-2-(1-methylethyl)-1-benzofuran-7-yl]methyl}-5-methyl-N-[4-(1-pyrrolidinylmethyl)phenyl]-1H-pyrazole-3-carboxamidehydrochloride] | 501 to 10000 nM | ≤ 316 nM | ≤ 100 nM
CC(C)c1cc2cc(Cl)cc(Cc3ccc(C(=O)NN(C)C)o3)c2o1 [Example 39, 5-{[5-Chloro-2-(1-methylethyl)-1-benzofuran-7-yl]methyl}-N′,N′-dimethyl-2-furancarbohydrazide] | 501 to 10000 nM | ≤ 316 nM | 
CCNCc1ccc(NC(=O)c2ccc(Cc3cc(Cl)cc4cc(C(C)C)oc34)o2)cc1 [Example 56, 5-{[5-Chloro-2-(1-methylethyl)-1-benzofuran-7-yl]methyl}-N-{4-[(ethylamino)methyl]phenyl}-2-furancarboxamide Hydrochloride] | 501 to 10000 nM | ≤ 316 nM | 
Cc1cc(NC(=O)OCC2CCNCC2)nn1Cc1cc(Cl)cc2cc(C(C)C)oc12 [Example 4, 4-Piperidinylmethyl (1-{[5-chloro-2-(1-methylethyl)-1-benzofuran-7-yl]methyl}-5-methyl-1H-pyrazol-3-yl)carbamate Hydrochloride] | 501 to 10000 nM | ≤ 316 nM | 
Cc1cc(C(=O)NN2CCCCC2)nn1Cc1cc(Cl)cc2cc(C(C)C)oc12 [Example 6, 1-{[5-Chloro-2-(1-methylethyl)-1-benzofuran-7-yl]methyl}-5-methyl-N-1-piperidinyl-1H-pyrazole-3-carboxamide] |  | ≤ 316 nM | ≤ 100 nM

More lines, now with the values ahead:

Ki (human EP3 receptor) | Ki (human EP1 receptor [1]) | IC50 (human EP1 receptor [2]) | SMILES
501 to 10000 nM | ≤ 316 nM | ≤ 100 nM | Cc1cc(C(=O)Nc2ccc(CO)cc2)nn1Cc1cc(Br)cc2cc(C(C)C)oc12 [Example 71]
501 to 10000 nM |  |  | CC(C)c1cc2cc(Cl)cc(Cc3cccc(C(=O)NCC4CCNCC4)n3)c2o1 [Example 47, 6-{[5-Chloro-2-(1-methylethyl)-1-benzofuran-7-yl]methyl}-N-(4-piperidinylmethyl)-2-pyridinecarboxamidehydrochloride]
501 to 10000 nM | ≤ 316 nM | ≤ 100 nM | CC(C)c1cc2cc(Cl)cc(Cc3ccc(C(=O)Nc4ccc(CN5CCCC5)cc4)o3)c2o1 [Example 53, 5-{[5-Chloro-2-(1-methylethyl)-1-benzofuran-7-yl]methyl}-N-[4-(1-pyrrolidinylmethyl)phenyl]-2-furancarboxamide]
501 to 10000 nM |  |  | CC(C)NC(=O)c1ccc(Cc2cc(Cl)cc3cc(C(C)C)oc23)o1 [Example 38, 5-{[5-Chloro-2-(1-methylethyl)-1-benzofuran-7-yl]methyl}-N-(1-methylethyl)-2-furancarboxamide]
501 to 10000 nM | ≤ 316 nM | ≤ 100 nM | CC(C)c1cc2cc(Cl)cc(Cc3ccc(C(=O)Nc4ccc(CO)cc4)o3)c2o1 [Example 72, 5-{[5-Chloro-2-(1-methylethyl)-1-benzofuran-7-yl]methyl}-N-[4-(hydroxymethyl)phenyl]-2-furancarboxamide]
501 to 10000 nM | ≤ 316 nM |  | Cc1cc(C(=O)N2CCOCC2)nn1Cc1cc(Cl)cc2cc(C3CC3)oc12 [Example 32, 4-({1-[(5-chloro-2-cyclopropyl-1-benzofuran-7-yl)methyl]-5-methyl-1H-pyrazol-3-yl}carbonyl)morpholine]
 | ≤ 316 nM | ≤ 100 nM | Cc1cc(C(=O)NN2CCOCC2)nn1Cc1cc(Br)cc2cc(C(C)C)oc12 [Example 18, 1-{[5-Bromo-2-(1-methylethyl)-1-benzofuran-7-yl]methyl}-5-methyl-N-4-morpholinyl-1H-pyrazole-3-carboxamide]
